Measurements taken from patent publication US20170280720A1, “ARGININE […] INHIBITORS AND USES THEREOF” (EPIZYME, INC., priority 2014, published 2017).

Assays:
[1] = test system: asymmetric di-methyl PABP1 in RKO cells; experiment: In Cell Western (ICW) for asymmetric di-methyl PABP1 and DNA content in RKO cells; assay type: cell-based; settings: In Cell Western
Description: RKO adherent cells were purchased from ATCC (American Type Culture Collection), Manassas, Va., USA. DMEM/Glutamax medium, penicillin-streptomycin, heat inactivated fetal bovine serum, 0.05% trypsin and D-PBS were purchased from Life Technologies, Grand Island, N.Y., USA. Odyssey blocking buffer, 800CW goat anti-rabbit IgG (H+L) antibody, and Licor Odyssey infrared scanner were purchased from Licor Biosciences, Lincoln, Nebr., USA. Mono-methyl arginine antibody was purchased from Cell Signaling Technology, Danvers, Mass., USA. Methanol was purchased from VWR, Franklin, Mass., USA. 10% Tween 20 was purchased from KPL, Inc., Gaithersburg, Md., USA. […] was purchased from Biostatus Limited, Leicestershire, UK. RKO adherent cells were maintained in growth medium (DMEM/Glutamax medium supplemented with 10% v/v heat inactivated fetal bovine serum and 100 units/mL penicillin-streptomycin) and cultured at 37° C. under 5% CO2. Cell Treatment, in Cell Western (ICW) for Detection of Asymmetric Di-Methyl PABP1 and DNA Content. RKO cells were seeded in assay medium at a concentration of 30,000 cells per mL to a poly-D-lysine coated 384 well culture plate (BD Biosciences 356697) with 50 μL per well. Compound (100 nL) from a 96-well source plate was added directly to 384 well cell plate. Plates were incubated at 37° C., 5% CO2 for 48 hours. After two days of incubation, plates were brought to room temperature outside of the incubator for ten minutes and blotted on paper towels to remove cell media. Cells were fixed for 20 minutes at room temperature by adding 50 μl of 8% PFA followed by aspiration of supernatant with the Biotek EL406 plate washer. Cells were then permeabilized by addition of 50 μL of ice cold 100% methanol directly to each well and incubated for 30 min at room temperature. After 30 min, plates were transferred to a Biotek EL406 plate washer and washed 2 times with 100 μL per well of wash buffer (1×PBS). Next 60 μL per well of Odyssey blocking buffer (Odyssey Buffer with 0.1% Tween 20 (v/v)) were added to each plate and incubated 1 hour at room temperature. Blocking buffer was removed and 20 μL per well of primary antibody was added (asymmetric-methyl PABP1) diluted 1:400 in Odyssey buffer with 0.1% Tween 20 (v/v)) and plates were incubated overnight (16 hours) at 4° C. Plates were washed 5 times with 100 μL per well of wash buffer. Next 20 μL per well of secondary antibody was added (1:800 800CW goat anti-rabbit IgG (H+L) antibody, 1:2000 DRAQS in Odyssey buffer with 0.1% Tween 20 (v/v)) and incubated for 1 hour at room temperature. The plates were washed 5 times with 100 μL per well wash buffer then 2 times with 100 μL per well of water. Plates were allowed to dry at room temperature then imaged on the Licor Odyssey machine which measures integrated intensity at 700 nm and 800 nm wavelengths. Both 700 and 800 channels were scanned. Calculations: First, the ratio for each well was determined by: Each plate included fourteen control wells of DMSO only treatment (minimum inhibition) as well as fourteen control wells for maximum inhibition treated with 20 μM of a reference compound. The average of the ratio values for each control type was calculated and used to determine the percent activation for each test well in the plate. Reference compound was serially diluted three-fold in DMSO for a total of nine test concentrations, beginning at 20 μM. Percent inhibition was determined and IC50 curves were generated using triplicate wells per concentration of compound.

Human CARM1 (PRMT4) = molecular target: T1, Human CARM1 (PRMT4) (Homo sapiens, UniProt Q86X55); experiment: CARM1 biochemical assay (3H-SAM Flashplate, peptide substrate); settings: read-out: CARM1_ IC50
T1 construct: Flag-CARM1-His; made in house; host or cells: HEK 293F cells (BacMam baculovirus, pFastBacMam)
T1 sequence (Q86X55 2-585 isoform Q86X55-1): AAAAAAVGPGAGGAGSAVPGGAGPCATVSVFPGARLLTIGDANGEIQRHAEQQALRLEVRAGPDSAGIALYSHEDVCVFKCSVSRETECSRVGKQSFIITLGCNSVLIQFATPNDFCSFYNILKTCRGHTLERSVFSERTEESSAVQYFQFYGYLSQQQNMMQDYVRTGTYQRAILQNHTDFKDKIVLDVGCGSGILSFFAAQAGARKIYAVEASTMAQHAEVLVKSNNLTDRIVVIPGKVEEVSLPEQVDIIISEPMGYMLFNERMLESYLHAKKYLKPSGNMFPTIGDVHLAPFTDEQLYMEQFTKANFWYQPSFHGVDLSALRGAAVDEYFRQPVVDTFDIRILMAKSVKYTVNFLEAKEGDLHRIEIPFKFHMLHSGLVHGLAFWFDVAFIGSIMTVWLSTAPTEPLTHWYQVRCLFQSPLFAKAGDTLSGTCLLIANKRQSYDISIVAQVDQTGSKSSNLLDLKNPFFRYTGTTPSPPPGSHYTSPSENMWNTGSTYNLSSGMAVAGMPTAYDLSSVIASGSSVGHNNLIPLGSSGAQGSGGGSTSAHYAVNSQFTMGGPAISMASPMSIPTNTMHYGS
Description: (§1) S-adenosylmethionine (SAM), S-adenosylhomocysteine (SAH), bicine, Tween20, dimethylsulfoxide (DMSO), bovine skin gelatin (BSG), sodium butyrate and Tris(2-carboxyethyl)phosphine hydrochloride solution (TCEP) were purchased from Sigma-Aldrich at the highest level of purity possible. ^3H-SAM was purchase from American Radiolabeled Chemicals with a specific activity of 80 Ci/mmol. 384-well streptavidin Flashplates were purchased from PerkinElmer.
Peptide representative of human histone H3 residues 16-30 was synthesized with an N-terminal linker-affinity tag motif and a C-terminal amide cap by 21st Century Biochemicals. The peptide was purified by high-performance liquid chromatography (HPLC) to greater than 95% purity and confirmed by liquid chromatography mass spectrometry (LC-MS). The sequence was Biot-Ahx-[…]-amide and contained a monomethylated arginine at position 26 (SEQ ID NO.: 14).
Human CARM1 (PRMT4) (NM_199141.1) transcript clone was amplified from an HEK 293 cDNA library, incorporating a flanking 5′ sequence encoding a FLAG tag ([…]) (SEQ ID NO.: 6) fused directly to Ala 2 of CARM1 and 3′ sequence encoding a hexa His sequence ([…]) (SEQ ID NO.: 15) fused directly to Ser 608. The gene sequence encoding isoform1 containing a deletion of amino acids 539-561 was amplified subsequently and subcloned into pFastBacMam (Viva Biotech).
Recombinant baculovirus were generated according to Bac-to-Bac kit instructions (Life Technologies). […] Infections were carried out at 37° C. for 48 hours, harvested by centrifugation, and stored at −80° C. for purification.
Column was washed with 500 mM NaCl in buffer A and Flag-CARM1-His was eluted with 200 ug/ml FLAG peptide in buffer A. Pooled fractions were dialyzed in 20 mM Tris, 150 mM NaCl, 5% glycerol and 1 mM DTT, pH 7.8. The purity of recovered protein was 94.
General Procedure for CARM1 Enzyme Assays on Peptide Substrates.
The assays were all performed in a buffer consisting of 20 mM Bicine (pH=7.6), 1 mM TCEP, 0.005% BSG, and 0.002% Tween 20, prepared on the day of use. Compounds in 100% DMSO (1 ul) were spotted into a polypropylene 384-well V-bottom plates (Greiner) using a Platemate Plus outfitted with a 384-channel head (Thermo Scientific). DMSO (1 ul) was added to Columns 11, 12, 23, 24, rows A-H for the maximum signal control and 1 ul of SAH, a known product and inhibitor of CARM1, was added to columns 11, 12, 23, 24, rows I-P for the minimum signal control. A cocktail (40 ul) containing the CARM1 enzyme was added by Multidrop Combi (Thermo-Fisher). The compounds were allowed to incubate with CARM1 for 30 min at room temperature, then a cocktail (10 ul) containing ^3H-SAM and peptide was added to initiate the reaction (final volume=51 ul). The final concentrations of the components were as follows: CARM1 was 0.25 nM, ^3H-SAM was 30 nM, peptide was 250 nM, SAH in the minimum signal control wells was 1 mM, and the DMSO concentration was 2%. The assays were stopped by the addition of non-radiolabeled SAM (10 ul) to a final concentration of 300 uM, which dilutes the ^3H-SAM to a level where its incorporation into the peptide substrate is no longer detectable. 50 ul of the reaction in the 384-well polypropylene plate was then transferred to a 384-well Flashplate and the biotinylated peptides were allowed to bind to the streptavidin surface for at least 1 hour before being washed once with 0.1% Tween20 in a Biotek ELx405 plate washer. The plates were then read in a PerkinElmer TopCount plate reader to measure the quantity of ^3H-labeled peptide bound to the Flashplate surface, measured as disintegrations per minute (dpm) or alternatively, referred to as counts per minute (cpm).
Where dpm=disintegrations per minute, cmpd=signal in assay well, and min and max are the respective minimum and maximum signal controls.
Where top and bottom are the normally allowed to float, but may be fixed at 100 or 0 respectively in a 3-parameter fit. […]

human PRMT1 = molecular target: T2, human PRMT1 (Homo sapiens, UniProt Q99873); experiment: PRMT1 biochemical assay (3H-SAM Flashplate, peptide substrate); settings: read-out: PRMT1_ IC50
T2 construct: GST-tagged PRMT1; made in house; host or cells: High Five insect cells (baculovirus, pFastBacI)
Description: as §1, with “(BSG),” for “(BSG), sodium butyrate”
Peptide representative of human histone H4 residues 36-50 was synthesized with an N-terminal linker-affinity tag motif and a C-terminal amide cap by 21st Century Biochemicals. The peptide was purified by high-performance liquid chromatography (HPLC) to greater than 95% purity and confirmed by liquid chromatography mass spectrometry (LC-MS). The sequence was Biot-Ahx-[…]-amide (SEQ ID NO.: 1).
Full-length human PRMT1 isoform 1 (NM_001536.5) transcript clone was amplified from an HEK 293 cDNA library, incorporating flanking 5′ sequence encoding a FLAG tag ([…]) (SEQ ID NO.: 2) fused directly to Met 1 of PRMT1. The amplified gene was subcloned into pFastBacI (Life Technologies) modified to encode an N-terminal GST tag and a TEV cleavage sequence ([…] […] […] […] QGGNS)(SEQ ID NO.: 3) fused to Asp of the Flag tag of PRMT1.
Recombinant baculovirus were generated according to Bac-to-Bac kit instructions (Life Technologies). Protein over-expression was accomplished by infecting exponentially growing High Five insect cell culture at 1.5×10^6 cell/ml with 1:100 ratio of virus. Infections were carried out at 27° C. for 48 hours, harvested by centrifugation, and stored at −80° C. for purification.
GST-tagged PRMT1 was eluted with 50 mM Tris, 2 mM glutathione, pH 7.8, dialysed in buffer A and concentrated to 1 mg/mL. The purity of recovered protein was 73%. Reference: Wasilko, D. J. and S. E. Lee: “TIPS: titerless infected-cells preservation and scale-up” Bioprocess J., 5 (2006), pp. 29-32.
General Procedure for PRMT1 Enzyme Assays on Peptide Substrates.
The assays were all performed in a buffer consisting of 20 mM Bicine (pH=7.6), 1 mM TCEP, 0.005% BSG, and 0.002% Tween 20, prepared on the day of use. Compounds in 100% DMSO (1 ul) were spotted into a polypropylene 384-well V-bottom plates (Greiner) using a Platemate Plus outfitted with a 384-channel head (Thermo Scientific). DMSO (1 ul) was added to Columns 11, 12, 23, 24, rows A-H for the maximum signal control and 1 ul of SAH, a known product and inhibitor of PRMT1, was added to columns 11, 12, 23, 24, rows I-P for the minimum signal control. A cocktail (40 ul) containing the PRMT1 enzyme was added by Multidrop Combi (Thermo-Fisher). The compounds were allowed to incubate with PRMT1 for 30 min at room temperature, then a cocktail (10 ul) containing SAM and peptide was added to initiate the reaction (final volume=51 ul). The final concentrations of the components were as follows: PRMT1 was 0.5 nM, ^3H-SAM was 200 nM, non-radiolabeled SAM was 1.5 uM, peptide was 20 nM, SAH in the minimum signal control wells was 1 mM, and the DMSO concentration was 2%. The assays were stopped by the addition of non-radiolabeled SAM (10 ul) to a final concentration of 300 uM, which dilutes the ^3H-SAM to a level where its incorporation into the peptide substrate is no longer detectable. 50 ul of the reaction in the 384-well polypropylene plate was then transferred to a 384-well Flashplate and the biotinylated peptides were allowed to bind to the streptavidin surface for at least 1 hour before being washed once with 0.1% Tween20 in a Biotek ELx405 plate washer. The plates were then read in a PerkinElmer TopCount plate reader to measure the quantity of ^3H-labeled peptide bound to the Flashplate surface, measured as disintegrations per minute (dpm) or alternatively, referred to as counts per minute (cpm).
Where dpm=disintegrations per minute, cmpd=signal in assay well, and min and max are the respective minimum and maximum signal controls. […]

T2 sequence (Q99873 with tags, fused parts or gaps): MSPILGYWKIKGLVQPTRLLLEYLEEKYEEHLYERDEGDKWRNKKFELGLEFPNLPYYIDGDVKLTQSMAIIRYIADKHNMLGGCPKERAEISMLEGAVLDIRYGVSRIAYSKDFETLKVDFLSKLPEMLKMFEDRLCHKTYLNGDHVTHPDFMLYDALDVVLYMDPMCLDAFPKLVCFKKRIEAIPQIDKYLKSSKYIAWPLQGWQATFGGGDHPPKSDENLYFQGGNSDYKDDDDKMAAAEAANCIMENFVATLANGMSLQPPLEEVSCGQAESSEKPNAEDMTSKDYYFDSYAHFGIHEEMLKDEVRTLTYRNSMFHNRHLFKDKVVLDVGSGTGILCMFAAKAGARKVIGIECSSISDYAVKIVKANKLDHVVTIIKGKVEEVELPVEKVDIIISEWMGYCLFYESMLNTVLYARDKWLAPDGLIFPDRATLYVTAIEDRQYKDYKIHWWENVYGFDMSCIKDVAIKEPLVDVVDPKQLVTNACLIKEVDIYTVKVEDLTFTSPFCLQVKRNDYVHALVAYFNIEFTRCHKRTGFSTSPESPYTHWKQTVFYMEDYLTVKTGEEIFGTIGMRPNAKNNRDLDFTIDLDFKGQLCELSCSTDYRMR

Compound | IC50 ([1]; Homo sapiens, RKO) [nM] | IC50 (Human CARM1 (PRMT4)) [nM] | IC50 [1] [nM] | IC50 (human PRMT1) [nM]
Cc1c(C(=O)NC2CCOCC2)cc(-c2cccc(CN(C)CCN)c2)cc1N(C)CC1CC1 [Compound 243] | 20000 | 52 | – | –
CNCCN(C)Cc1cccc(-c2cc(-c3ccsc3)c3cnn(C(C)C)c3n2)c1 [Compound 235] | 20000 | 45.8 | – | –
CN(CCN)Cc1cccc(-c2cc(C(=O)NCC3CCOCC3)cc(N(C)CC3CC3)c2)c1 [Compound 208] | 5540 | 20.7 | – | –
CNCCN(C)Cc1cccc(-c2cc(C(O)c3ccncc3)c3cnn(C(C)C)c3n2)c1 (stereo not drawn) [Compound 307] | 20000 | 250 | – | –
CNCCN(C)Cc1cccc(-c2cc(C(=O)NCc3cc(C)on3)c3cnn(C(C)C)c3n2)c1 [Compound 229] | – | – | 2250 | –
Cc1cc(C)c(CNC(=O)c2cncc(-c3cccc(CN(C)CCN)c3)c2)c(=O)[nH]1 [Compound 380] | – | – | – | 340
CNCCN(C)Cc1cccc(-c2cc(C(=O)NCc3cc(C)on3)c3cnn(C(C)C)c3n2)c1 [Compound 186] | 1400 | – | – | –
CNCCN(C)Cc1cccc(-c2cncc(C(=O)NCc3c(C)cc(C)[nH]c3=O)c2)c1 [Compound 375] | – | – | – | 101
